Like-named read-outs stand apart in the source and are kept apart here.
Legend:
[1] = target: human DGKζ (Homo sapiens (Human), UniProt Q13574); assay: biochemical; format: biochemical
[2] = tested on: Human venous whole blood (IFN-γ); assay: Human whole blood IFN-γ assay; format: cell-based
Procedure: Assay 10: Human Whole Blood IFN-γ Assay
Human venous whole blood (22.5 μL per well), obtained from healthy donors, was pre-treated with compounds for one hour at 37° C. in a humidified 95% air/5% CO2 incubator. The blood was stimulated with 2.5 μL anti-human CD3 and anti-CD28 mAb at a final concentration of 1 μg/mL each for 24 hours at 37° C. IFN-γ in the supernatants was measured using AlphLISA kit (Cat #AL217).

[3] = tested on: human venous whole blood, CD8 positive population (pERK); assay: DGK human whole blood pERK assay; format: cell-based; conditions: read-out: DGK HWB pERK IC50
Method in brief: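 Read-out is the pERK-positive fraction of CD8+ cells measured by flow cytometry. Donor venous blood (heparin) saw compound for one hour at 37° C before a 15-minute anti-CD3 challenge (1 μg/mL final) with cross-linking anti-mouse IgG.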

[4] = target: DGKα (Homo sapiens (Human), UniProt P23743); assay: biochemical; format: biochemical
[5] = liposome (LIPGLO) assay, read-out: DGKζ LIPGLO IC50
[6] = human whole blood, anti-CD3 plus anti-CD28, 24 hours, read-out: INFg Whole Blood Normalized Agonist EC50
[7] = human whole blood, CD8 positive population
[8] = liposome (LIPGLO) assay, read-out: DGKα LIPGLO IC50
[9] = Homo sapiens, 24 h, human whole blood, anti-CD3 plus anti-CD28, 24 hours, read-out: INFg Whole Blood Normalized Agonist EC50

Chain of human DGKζ (Q13574 whole entry, looked up): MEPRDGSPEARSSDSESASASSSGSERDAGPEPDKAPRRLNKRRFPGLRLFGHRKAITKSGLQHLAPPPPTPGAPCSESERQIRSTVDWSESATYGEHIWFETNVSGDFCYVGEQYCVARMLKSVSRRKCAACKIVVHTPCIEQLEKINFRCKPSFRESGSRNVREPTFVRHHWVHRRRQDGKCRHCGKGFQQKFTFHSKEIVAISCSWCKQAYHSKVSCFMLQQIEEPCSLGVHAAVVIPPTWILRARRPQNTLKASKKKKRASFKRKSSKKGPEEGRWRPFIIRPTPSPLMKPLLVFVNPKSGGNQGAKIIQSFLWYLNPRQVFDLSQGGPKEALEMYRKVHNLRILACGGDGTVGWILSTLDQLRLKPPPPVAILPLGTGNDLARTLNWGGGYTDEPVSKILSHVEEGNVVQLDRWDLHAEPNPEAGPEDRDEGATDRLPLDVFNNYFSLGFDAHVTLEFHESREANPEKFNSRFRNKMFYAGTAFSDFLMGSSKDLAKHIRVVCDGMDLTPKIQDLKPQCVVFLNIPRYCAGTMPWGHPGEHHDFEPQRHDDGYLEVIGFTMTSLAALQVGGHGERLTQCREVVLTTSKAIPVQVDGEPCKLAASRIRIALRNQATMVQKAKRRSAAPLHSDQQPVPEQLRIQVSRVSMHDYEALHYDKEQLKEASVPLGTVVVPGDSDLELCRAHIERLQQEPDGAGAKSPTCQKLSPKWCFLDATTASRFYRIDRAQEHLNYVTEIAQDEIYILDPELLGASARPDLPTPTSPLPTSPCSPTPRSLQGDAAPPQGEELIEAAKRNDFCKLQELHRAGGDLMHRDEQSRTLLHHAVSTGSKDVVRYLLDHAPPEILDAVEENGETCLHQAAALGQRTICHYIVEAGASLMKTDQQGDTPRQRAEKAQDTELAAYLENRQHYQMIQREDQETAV
Chain of DGKα (P23743 whole entry, looked up): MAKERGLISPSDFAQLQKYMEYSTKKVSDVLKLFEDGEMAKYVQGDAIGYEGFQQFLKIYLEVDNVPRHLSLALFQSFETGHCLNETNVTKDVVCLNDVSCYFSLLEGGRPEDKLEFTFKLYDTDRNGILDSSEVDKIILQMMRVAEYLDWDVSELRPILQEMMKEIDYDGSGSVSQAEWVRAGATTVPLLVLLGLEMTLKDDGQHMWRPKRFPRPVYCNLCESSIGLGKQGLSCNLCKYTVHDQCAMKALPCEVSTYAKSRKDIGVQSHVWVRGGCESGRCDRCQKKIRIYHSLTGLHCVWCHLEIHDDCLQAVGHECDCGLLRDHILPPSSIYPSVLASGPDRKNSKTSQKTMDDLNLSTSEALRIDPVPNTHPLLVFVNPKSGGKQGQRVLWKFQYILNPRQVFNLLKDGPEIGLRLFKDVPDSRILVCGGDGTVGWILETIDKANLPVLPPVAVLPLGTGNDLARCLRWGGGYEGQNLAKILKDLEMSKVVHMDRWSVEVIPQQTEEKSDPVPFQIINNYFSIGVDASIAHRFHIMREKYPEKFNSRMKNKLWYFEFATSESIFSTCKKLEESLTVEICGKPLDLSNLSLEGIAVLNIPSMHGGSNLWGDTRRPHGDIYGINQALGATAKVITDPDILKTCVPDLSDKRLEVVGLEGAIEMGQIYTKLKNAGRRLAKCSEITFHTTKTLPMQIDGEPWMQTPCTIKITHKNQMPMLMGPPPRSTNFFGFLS

Structure (SMILES) | IC50 [1, 5] [µM] | EC50 [2, 6] [µM] | IC50 [4, 8] [nM] | EC50 [2, 9] [µM] | also measured
CCC(C)(C)c1ccc(O[C@H]2CCN(c3cc(=O)n(C)c4ccc(C#N)nc34)C[C@H]2C)cc1 (single isomer, unassigned) [Example 170] | 1.1 | 0.86 | 370 |  | IC50 [3, 7]: 540 nM
CC(C)c1ccc(O[C@H]2CCN(c3cc(=O)n(C)c4ccc(C#N)nc34)C[C@H]2C)cc1 (single isomer, unassigned) [Example 178] | 0.53 | 4.6 | 62 |  | IC50 [3, 7]: 2300 nM
CC[C@@H]1CN(c2cc(=O)n(C)c3ccc(C#N)nc23)CC[C@@H]1Oc1cccc(C(C)(C)C)c1 [Example 167, 8-((3R,4S)-4-(3-(tert-butyl)phenoxy)-3-ethylpiperidin-1-yl)-5-methyl-6-oxo-5,6-dihydro-1,5-naphthyridine-2-carbonitrile] | 1 |  | 120 |  | EC50 ([2]; read-out: INFg Whole Blood Normalized Agonist EC50, human whole blood, anti-CD3 plus anti-CD28, 24 hours): 1.6 µM; IC50 ([3]; Homo sapiens, CD8 positive): 2000 nM
Cc1cc(OC2CCN(c3cc(=O)n(C)c4ccc(C#N)nc34)CC2)nc(C(C)C)n1 [Example 78, 8-(4-((2-isopropyl-6-methylpyrimidin-4-yl)oxy)piperidin-1-yl)-5-methyl-6-oxo-5,6-dihydro-1,5-naphthyridine-2-carbonitrile] | 16 |  | 810 |  | IC50 [3, 7]: 20000 nM
CC(C)c1ccc(O[C@@H]2CCN(c3cc(=O)n(C)c4ccc(C#N)nc34)C[C@H]2C)cc1 [Example 94, 8-((3R,4R)-4-(4-isopropylphenoxy)-3-methylpiperidin-1-yl)-5-methyl-6-oxo-5,6-dihydro-1,5-naphthyridine-2-carbonitrile] | 6.1 |  | 80 | 1.1 | IC50 [3, 7]: 3900 nM
CC[C@@H]1CN(c2cc(=O)n(C)c3ccc(C#N)nc23)CC[C@@H]1Oc1cccc(C(F)(F)F)c1 [Example 168] | 0.89 | 1.6 | 1000 |  | IC50 [3, 7]: 3700 nM
CC(C)c1ccc(O[C@H]2CCN(c3cc(=O)n(C)c4ccc(C#N)nc34)C[C@H]2C)cc1 (single isomer, unassigned) [Example 177] | 1.1 |  | 140 | 3.5 | 
Cn1c(=O)cc(N2CCC(Oc3ccc(C(C)(C)C)nn3)CC2)c2nc(C#N)ccc21 [Example 68, 8-(4-((6-(tert-butyl)pyridazin-3-yl)oxy)piperidin-1-yl)-5-methyl-6-oxo-5,6-dihydro-1,5-naphthyridine-2-carbonitrile] | 1.7 |  | 1700 | 9.6 | 
CC[C@@H]1CN(c2cc(=O)n(C)c3ccc(C#N)nc23)CC[C@H]1Oc1cccc(C(F)(F)F)c1 (single isomer, unassigned) [Example 141] | 0.26 | 0.5 | 68 |  | 
CCC(C)(C)c1ccc(OC2CCN(c3cc(=O)n(C)c4ccc(C#N)nc34)CC2)cc1 [Example 54, 5-methyl-6-oxo-8-(4-(4-(tert-pentyl)phenoxy)piperidin-1-yl)-5,6-dihydro-1,5-naphthyridine-2-carbonitrile] | 2.1 |  | 540 | 2.3 | 
Cn1c(=O)cc(N2CCC(Oc3ncnc4ccccc34)CC2)c2nc(C#N)ccc21 [Example 71, 5-methyl-6-oxo-8-(4-(quinazolin-4-yloxy)piperidin-1-yl)-5,6-dihydro-1,5-naphthyridine-2-carbonitrile] | 3 |  | 2300 | 20 | 
CCC(C)(C)c1ccc(O[C@@H]2CCN(c3cc(=O)n(C)c4ccc(C#N)nc34)C[C@H]2C)cc1 (single isomer, unassigned) [Example 84] | 23 | 1.2 | 48 |  | 
Cn1c(=O)cc(N2CCC(Oc3ccc(Cl)cn3)CC2)c2nc(C#N)ccc21 [Example 67, 8-(4-((5-chloropyridin-2-yl)oxy)piperidin-1-yl)-5-methyl-6-oxo-5,6-dihydro-1,5-naphthyridine-2-carbonitrile] | 7.1 |  | 1600 | 2.7 | 
C[C@@H]1CN(c2c(C#N)c(=O)n(C)c3ccc(C#N)nc23)CC[C@@H]1Oc1ccc(C(F)(F)F)cc1 [Example 191, 5-methyl-8-((3R,4S)-3-methyl-4-(4-(trifluoromethyl)phenoxy)piperidin-1-yl)-6-oxo-5,6-dihydro-1,5-naphthyridine-2,7-dicarbonitrile] |  |  |  |  | IC50 ([1]; Table A, liposome (LIPGLO) assay, read-out: DGKζ): 8.6 µM; EC50 ([2]; human whole blood IFN-γ, read-out: INFg Whole Blood): 20 µM; IC50 ([4]; Table A, liposome (LIPGLO) assay, read-out: DGKα): 1800 nM
Cc1cccc(O[C@@H]2CCN(c3cc(=O)n(C)c4ccc(C#N)nc34)C[C@H]2C)c1 (single isomer, unassigned) [Example 109] | 29 | 4.2 | 120 |  | 
CCC(C)(C)c1ccc(O[C@H]2CCN(c3cc(=O)n(C)c4ccc(C#N)nc34)C[C@H]2C)cc1 (single isomer, unassigned) [Example 171] |  | 3 |  |  | IC50 ([1]; read-out: DGKζ LIPGLO IC50): 3.7 µM; IC50 ([4]; read-out: DGKα LIPGLO IC50): 1400 nM
Cc1cc(OC2CCN(c3cc(=O)n(C)c4ccc(C#N)nc34)CC2)nc(C)n1 [Example 70, 8-(4-((2,6-dimethylpyrimidin-4-yl)oxy)piperidin-1-yl)-5-methyl-6-oxo-5,6-dihydro-1,5-naphthyridine-2-carbonitrile] | 11 |  | 12000 | 20 | 
Cn1c(=O)cc(N2CCC(Oc3nccc4cccnc34)CC2)c2nc(C#N)ccc21 [Example 74, 8-(4-((1,7-naphthyridin-8-yl)oxy)piperidin-1-yl)-5-methyl-6-oxo-5,6-dihydro-1,5-naphthyridine-2-carbonitrile] | 3.3 |  | 2800 | 20 | 
CC[C@@H]1CN(c2cc(=O)n(C)c3ccc(C#N)nc23)CC[C@H]1Oc1ccc(OC(C)(C)C)cc1 (single isomer, unassigned) [Example 159] | 2.3 |  | 130 | 4.2 | 
Cc1cc(OC2CCN(c3cc(=O)n(C)c4ccc(C#N)nc34)CC2)ccc1C(C)C [Example 60, 8-(4-(4-isopropyl-3-methylphenoxy)piperidin-1-yl)-5-methyl-6-oxo-5,6-dihydro-1,5-naphthyridine-2-carbonitrile] | 5.5 |  | 240 | 7.9 | 
CCCCCc1ccc(OC2CCN(c3cc(=O)n(C)c4ccc(C#N)nc34)CC2)cc1 [Example 62, 5-methyl-6-oxo-8-(4-(4-pentylphenoxy)piperidin-1-yl)-5,6-dihydro-1,5-naphthyridine-2-carbonitrile] | 5.2 |  | 1500 | 20 | 
C[C@@H]1CN(c2cc(=O)n(C)c3ccc(C#N)nc23)CC[C@H]1Oc1cccc(C2CC2)c1 (single isomer, unassigned) [Example 93] | 18 | 5.9 | 300 |  | 
Cn1c(=O)cc(N2CCC(Oc3ccc4c(c3)CCCC4)CC2)c2nc(C#N)ccc21 [Example 61, 5-methyl-6-oxo-8-(4-((5,6,7,8-tetrahydronaphthalen-2-yl)oxy)piperidin-1-yl)-5,6-dihydro-1,5-naphthyridine-2-carbonitrile] | 4.7 |  | 730 | 8.5 | 
CCC(C)(C)c1ccc(O[C@@H]2CCN(c3cc(=O)n(C)c4ccc(C#N)nc34)C[C@H]2C)cc1 [Example 82, 5-methyl-8-((3R,4R)-3-methyl-4-(4-(tert-pentyl)phenoxy)piperidin-1-yl)-6-oxo-5,6-dihydro-1,5-naphthyridine-2-carbonitrile] |  |  |  | 0.65 | IC50 ([1]; read-out: DGKζ LIPGLO IC50): 3.9 µM; IC50 ([4]; read-out: DGKα LIPGLO IC50): 30 nM

From US11964973B2 (priority 2019, dated 2024)
